# According to patent US9809574B2, “Isoindoline or isoquinoline compounds, a process for their preparation and pharmaceutical compositions containing them” (LES LABORATOIRES SERVIER, priority 2013, dated 2017):
# Where a name gives a salt, the structure may show the parent alone. Read-outs that look alike come from different tables or passages of the source.
# Columns and labels:
# [1] = system: RS4; 11 leukaemia cell line; test: In vitro cytotoxicity, Microculture Tetrazolium Assay (MTT); type: cell-based; conditions: Homo sapiens, 11 cells exposed for 48 hours
# Description: The cytotoxicity studies were carried out on the RS4; 11 leukaemia cell line and on H146 small Cell Lung Carcinoma cell line. The cells are distributed onto microplates and exposed to the test compounds for 48 hours. The cell viability is then quantified by a colorimetric assay, the Microculture Tetrazolium Assay (Cancer Res., 1987, 47, 939-942).
# Bcl-2 protein = Bcl-2 protein (histag-Bcl-2, UniProtKB P10415) (Homo sapiens (Human), UniProt P10415); test: Inhibition of Bcl-2 by the fluorescence polarisation technique; type: binding
# Text: For partial inhibitors, the percentage fluorescence polarisation inhibition for a given concentration of the test compound is indicated.
# [2] = fluorescence polarisation test, incubation for 2 hours, read-out: IC50 (nM) Bcl-2 FP
# Sequence of Bcl-2 protein (P10415 whole entry): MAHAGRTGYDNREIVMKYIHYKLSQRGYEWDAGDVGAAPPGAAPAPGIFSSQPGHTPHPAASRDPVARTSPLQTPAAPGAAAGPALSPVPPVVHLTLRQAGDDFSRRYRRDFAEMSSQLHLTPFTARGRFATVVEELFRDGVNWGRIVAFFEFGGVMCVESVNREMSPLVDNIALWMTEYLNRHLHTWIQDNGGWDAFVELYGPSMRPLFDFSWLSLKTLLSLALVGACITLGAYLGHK
Compound,IC50 (Bcl-2 protein; [2]),IC50 [1],IC50 (Bcl-2 protein)
"CN(C(=O)c1cc(-c2cc3c(cc2C(=O)N2Cc4ccccc4C[C@H]2CN2CCOCC2)CN(S(=O)(=O)c2ccccc2)CC3)n2c1CCCC2)c1ccc(O)cc1 [Example 3, 3-[2-(Benzenesulfonyl)-7-[(3S)-3-(morpholin-4-ylmethyl)-1,2,3,4-tetrahydroisoquinoline-2-carbonyl]-1,2,3,4-tetrahydroisoquinolin-6-yl]-N-(4-hydroxyphenyl)-N-methyl-5,6,7,8-tetrahydroindolizine-1-carboxamide]",18 nM,236 nM,
"C[C@@H]1Cc2ccccc2CN1C(=O)c1cc2c(cc1-c1cc(C(=O)N(C)c3ccc(O)cc3)c3n1CCCC3)CCN(C(=O)NC(C)(C)C)C2 [Example 48, N-tert-Butyl-6-{1-[(4-hydroxyphenyl)(methyl)carbamoyl]-5,6,7,8-tetrahydroindolizin-3-yl}-7-[(3R)-3-methyl-1,2,3,4-tetrahydroisoquinoline-2-carbonyl]-1,2,3,4-tetrahydroisoquinoline-2-carboxamide]",8.7 nM,40 nM,
"CN(C(=O)c1cc(-c2cc3c(cc2C(=O)N2Cc4ccccc4C[C@H]2CN2CCOCC2)CN(C(=O)OC(C)(C)C)C3)n2c1CCCC2)c1ccc(O)cc1 [Example 6, tert-Butyl 5-{1-[(4-hydroxyphenyl)(methyl)carbamoyl]-5,6,7,8-tetrahydroindolizin-3-yl}-6-[(3S)-3-(morpholin-4-ylmethyl)-1,2,3,4-tetrahydroisoquinoline-2-carbonyl]-2,3-dihydro-1H-isoindole-2-carboxylate]",95 nM,> 1880 nM,
"CN(C(=O)c1cc(-c2cc3c(cc2C(=O)N2Cc4ccccc4C[C@H]2CN2CCOCC2)CN(C(=O)Oc2ccc(C#N)cc2)CC3)n2c1CCCC2)c1ccc(O)cc1 [Example 127, 4-Cyanophenyl 6-{1-[(4-hydroxyphenyl)(methyl)carbamoyl]-5,6,7,8-tetrahydroindolizin-3-yl}-7-[(3S)-3-(morpholin-4-ylmethyl)-1,2,3,4-tetrahydroisoquinoline-2-carbonyl]-1,2,3,4-tetrahydroisoquinoline-2-carboxylate]",3.3 nM,6.4 nM,
"Cc1c(C(=O)N(C)c2ccc(O)cc2)cc(-c2cc3c(cc2C(=O)N2Cc4ccccc4C[C@H]2CN2CCN(C)CC2)CN(C(=O)Oc2cccc(C(=O)O)c2)CC3)n1C [Example 733, 3-(6-{4-[(4-Hydroxyphenyl)(methyl)carbamoyl]-1,5-dimethyl-1H-pyrrol-2-yl}-7-[(3S)-3-[(4-methylpiperazin-1-yl)methyl]-1,2,3,4-tetrahydroisoquinoline-2-carbonyl]-1,2,3,4-tetrahydroisoquinoline-2-carbonyloxy)benzoic acid]",1.5 nM,> 150 nM,
"Cc1c(C(=O)N(C)c2ccc(O)cc2)cc(-c2cc3c(cc2C(=O)N2Cc4ccccc4C[C@H]2C)CN(C(=O)[C@@H](N)c2ccccc2)C3)n1C [Example 173, 5-(2-[(2S)-2-Amino-2-phenylacetyl]-6-{[(3R)-3-methyl-3,4-dihydroisoquinolin-2(1H)-yl]carbonyl}-2,3-dihydro-1H-isoindol-5-yl)-N-(4-hydroxyphenyl)-N,1,2-trimethyl-1H-pyrrole-3-carboxamide]",55 nM,> 600 nM,
"Cc1c(C(=O)N(C)c2ccc(O)cc2)cc(-c2cc3c(cc2C(=O)N2Cc4ccccc4C[C@H]2CCN2CCOCC2)CN(C(=O)Oc2ccccc2)CC3)n1C [Example 216, Phenyl 6-{4-[(4-hydroxyphenyl)(methyl)carbamoyl]-1,5-dimethyl-1H-pyrrol-2-yl}-7-[(3S)-3-[2-(morpholin-4-yl)ethyl]-1,2,3,4-tetrahydroisoquinoline-2-carbonyl]-1,2,3,4-tetrahydroisoquinoline-2-carboxylate]",2.4 nM,2.9 nM,
"Cc1c(C(=O)N(C)c2ccc(O)cc2)cc(-c2cc3c(cc2C(=O)N2Cc4ccccc4C[C@H]2C)CN(C(=O)COCc2ccccc2)C3)n1C [Example 160, 5-{2-[2-(Benzyloxy)acetyl]-6-[(3R)-3-methyl-1,2,3,4-tetrahydroisoquinoline-2-carbonyl]-2,3-dihydro-1H-isoindol-5-yl}-N-(4-hydroxyphenyl)-N,1,2-trimethyl-1H-pyrrole-3-carboxamide]",6.9 nM,86 nM,
"Cc1c(C(=O)N(C)c2ccc(O)cc2)cc(-c2cc3c(cc2C(=O)N2Cc4ccccc4C[C@H]2CN2CCOCC2)CN(C(=O)Oc2ccc4ccccc4c2)CC3)n1C [Example 574, Naphthalen-2-yl 6-{4-[(4-hydroxyphenyl)(methyl)carbamoyl]-1,5-dimethyl-1H-pyrrol-2-yl}-7-[(3S)-3-(morpholin-4-ylmethyl)-1,2,3,4-tetrahydroisoquinoline-2-carbonyl]-1,2,3,4-tetrahydroisoquinoline-2-carboxylate]",8.8 nM,11 nM,
"Cc1c(C(=O)N(C)c2ccc(O)cc2)cc(-c2cc3c(cc2C(=O)N2Cc4ccccc4C[C@H]2CN2CCOCC2)CN(C(=O)Oc2cnc4[nH]ccc4c2)CC3)n1C [Example 579, 1H-Pyrrolo[2,3-b]pyridin-5-yl 6-{4-[(4-hydroxyphenyl)(methyl)carbamoyl]-1,5-dimethyl-1H-pyrrol-2-yl}-7-[(3S)-3-(morpholin-4-ylmethyl)-1,2,3,4-tetrahydroisoquinoline-2-carbonyl]-1,2,3,4-tetrahydroisoquinoline-2-carboxylate]",,17 nM,4.4 nM
"C[C@@H]1Cc2ccccc2CN1C(=O)c1cc2c(cc1-c1cc(C(=O)N(C)c3ccc(O)cc3)c3n1CCCC3)CN(C(=O)OCc1ccccc1)C2 [Example 62, Benzyl 5-{1-[(4-hydroxyphenyl)(methyl)carbamoyl]-5,6,7,8-tetrahydroindolizin-3-yl}-6-[(3R)-3-methyl-1,2,3,4-tetrahydroisoquinoline-2-carbonyl]-2,3-dihydro-1H-isoindole-2-carboxylate]",20 nM,113 nM,
"CCC(=O)N1Cc2cc(C(=O)N3Cc4ccccc4C[C@H]3CN3CCOCC3)c(-c3cc(C(=O)N(C)c4ccc(O)cc4)c4n3CCCC4)cc2C1 [Example 11, N-(4-Hydroxyphenyl)-N-methyl-3-{6-[(3S)-3-(morpholin-4-ylmethyl)-1,2,3,4-tetrahydroisoquinoline-2-carbonyl]-2-propanoyl-2,3-dihydro-1H-isoindol-5-yl}-5,6,7,8-tetrahydroindolizine-1-carboxamide hydrochloride]",22 nM,763 nM,

# The next lines start with results.
IC50 (Bcl-2 protein; [2]),Compound,IC50 [1],IC50 (Bcl-2 protein)
5.6 nM,"CNC(=O)N1CCc2cc(-c3cc(C(=O)N(C)c4ccc(O)cc4)c4n3CCCC4)c(C(=O)N3Cc4ccccc4C[C@H]3C)cc2C1 [Example 79, 6-{1-[(4-Hydroxyphenyl)(methyl)carbamoyl]-5,6,7,8-tetrahydroindolizin-3-yl}-N-methyl-7-[(3R)-3-methyl-1,2,3,4-tetrahydroisoquinoline-2-carbonyl]-1,2,3,4-tetrahydroisoquinoline-2-carboxamide]",> 150 nM,
4.9 nM,"C[C@@H]1Cc2ccccc2CN1C(=O)c1cc2c(cc1-c1cc(C(=O)N(C)c3ccc(O)cc3)c3n1CCCC3)CCN(C(=O)Cc1ccc(N3CCN(C)CC3)cc1)C2 [Example 97, N-(4-Hydroxyphenyl)-N-methyl-3-{7-[(3R)-3-methyl-1,2,3,4-tetrahydroisoquinoline-2-carbonyl]-2-{2-[4-(4-methylpiperazin-1-yl)phenyl]acetyl}-1,2,3,4-tetrahydroisoquinolin-6-yl}-5,6,7,8-tetrahydroindolizine-1-carboxamide]",15 nM,
3.3 nM,"Cc1ccc(OC(=O)N2CCc3cc(-c4cc(C(=O)N(C)c5ccccc5)c(C)n4C)c(C(=O)N4Cc5ccccc5C[C@H]4C)cc3C2)cc1 [Example 785, 4-Methylphenyl 6-{1,5-dimethyl-4-[methyl(phenyl)carbamoyl]-1H-pyrrol-2-yl}-7-[(3R)-3-methyl-1,2,3,4-tetrahydroisoquinoline-2-carbonyl]-1,2,3,4-tetrahydroisoquinoline-2-carboxylate]",7.8 nM,
5.1 nM,"C[C@@H]1Cc2ccccc2CN1C(=O)c1cc2c(cc1-c1cc(C(=O)N(C)c3ccc(O)cc3)c3n1CCCC3)CCN(C(=O)OCc1ccccc1)C2 [Example 93, Benzyl 6-{1-[(4-hydroxyphenyl)(methyl)carbamoyl]-5,6,7,8-tetrahydroindolizin-3-yl}-7-[(3R)-3-methyl-1,2,3,4-tetrahydroisoquinoline-2-carbonyl]-1,2,3,4-tetrahydroisoquinoline-2-carboxylate]",11 nM,
3.9 nM,"C[C@@H]1Cc2ccccc2CN1C(=O)c1cc2c(cc1-c1cc(C(=O)N(C)c3ccc(O)cc3)c3n1CCCC3)CCN(C(=O)Cc1ccc(NCCN3CCOCC3)cc1)C2 [Example 96, N-(4-Hydroxyphenyl)-N-methyl-3-{7-[(3R)-3-methyl-1,2,3,4-tetrahydroisoquinoline-2-carbonyl]-2-[2-(4-{[2-(morpholin-4-yl)ethyl]amino}phenyl)acetyl]-1,2,3,4-tetrahydroisoquinolin-6-yl}-5,6,7,8-tetrahydroindolizine-1-carboxamide]",9.1 nM,
3.6 nM,"C[C@@H]1Cc2ccccc2CN1C(=O)c1cc2c(cc1-c1cc(C(=O)N(C)c3ccc(O)cc3)c3n1CCCC3)CCN(C(=O)Cc1ccc(CN3CCN(C)CC3)cc1)C2 [Example 113, N-(4-Hydroxyphenyl)-N-methyl-3-{7-[(3R)-3-methyl-1,2,3,4-tetrahydroisoquinoline-2-carbonyl]-2-(2-{4-[(4-methylpiperazin-1-yl)methyl]phenyl}acetyl)-1,2,3,4-tetrahydroisoquinolin-6-yl}-5,6,7,8-tetrahydroindolizine-1-carboxamide]",25 nM,
